Laboratory results published in patent publication US7851637B2, “Compounds and methods for inhibiting the interaction of BCL proteins with binding partners” (Infinity Pharmaceuticals, Inc., priority 2004, dated 2010).

Assays:
[1] = target: Bcl-xL (Homo sapiens, UniProt Q07817); assay: Bcl-xL binding affinity analysis (fluorescence polarization binding assay); parameters: scale not given here
Description: (§1) Bcl-2 and Bcl-xL binding can be determined using a variety of known methods. One such assay is a sensitive and quantitative in vitro binding assay using fluorescence polarization (FP) described by Wang, J. -L.; Zhang, Z -J.; Choksi, S.; Sjam. S.; Lu, Z.; Croce, C. M.; Alnenri, E. S.; Komgold, R.; Huang, Z. Cell permeable Bcl-2 binding peptides: a chemical approach to apoptosis induction in tumor cells. Cancer Res. 2000, 60, 1498-1502).
(§2) Bcl-2 and Bcl-xL binding affinity analysis data is presented below for various compounds of the invention.

[2] = target: Bcl-2 (Homo sapiens, UniProt P10415); assay: Bcl-2 binding affinity analysis (fluorescence polarization binding assay)
Sequence of Bcl-2 (P10415 whole entry): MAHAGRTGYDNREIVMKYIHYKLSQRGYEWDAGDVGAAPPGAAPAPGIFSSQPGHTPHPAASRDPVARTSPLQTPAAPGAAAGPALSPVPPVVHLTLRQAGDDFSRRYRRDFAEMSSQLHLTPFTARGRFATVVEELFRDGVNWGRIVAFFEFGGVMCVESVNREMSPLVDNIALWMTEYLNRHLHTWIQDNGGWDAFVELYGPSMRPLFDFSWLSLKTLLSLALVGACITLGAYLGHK
Description: as §1, §2

Sequence of Bcl-xL (Q07817 whole entry): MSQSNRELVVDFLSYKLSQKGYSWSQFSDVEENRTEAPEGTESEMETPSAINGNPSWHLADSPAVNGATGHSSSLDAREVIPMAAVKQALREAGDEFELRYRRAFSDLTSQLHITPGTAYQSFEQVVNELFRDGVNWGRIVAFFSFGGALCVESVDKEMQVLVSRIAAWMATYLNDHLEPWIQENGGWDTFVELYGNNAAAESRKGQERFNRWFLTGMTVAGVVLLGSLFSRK

Row | Structure (SMILES) | Bcl-XL binding affinity Ki [1] | Ki [2] [nM]
1 | C[C@H](O)[C@@H]1[C@H](CO)ON(Cc2cccc(CN(CCN(C)C)CC3CCCCC3)c2)[C@@H]1C(=O)NC1C[C@H]2C[C@@H]([C@@H]1C)C2(C)C (stereo partly drawn) [Compound 190] | ♯ | < 800
2 | C[C@@H]1[C@@H](NC(=O)[C@@H]2C([C@H](C)O)[C@H](CO)ON2Cc2cccc(CN(CCN(C)C)Cc3ccccc3N3CCCCC3)c2)C[C@H]2C[C@@H]1C2(C)C (stereo partly drawn) [Compound 410] | ♯ | < 800
3 | CC(O)C1C(CO)ON(Cc2cccc(CN(CCN(C)C)Cc3ccccc3-c3ccc(Cl)cc3)c2)C1C(=O)NC1CC2CC(C1C)C2(C)C (stereo not drawn) [Compound 409] | ♯ | < 800
4 | CC(C)CC(CN(C)C)N(Cc1cccc(CN2OC(CO)C(C(C)O)C2C(=O)NC2CC3CC(C2C)C3(C)C)c1)Cc1ccccc1N1CCN(C)CC1 (stereo not drawn) [Compound 315] | ♯ | < 800
5 | C[C@@H]1[C@@H](NC(=O)[C@@H]2[C@H]([C@H](C)O)[C@H](CO)ON2Cc2cccc(-c3ccc(C(=O)N(C)C)cc3[N+](=O)[O-])c2)C[C@H]2C[C@@H]1C2(C)C [Compound 285] | ♯ | < 800
6 | CC(O)[C@H]1[C@@H](CO)ON(Cc2cccc(C#CC(C)(C)c3ccccc3)c2)[C@H]1C(=O)NCCCN(C)c1ccccc1 (stereo partly drawn) [Compound 31] | ♯ | 800 to 6000
7 | CC(C)/N=C(/NC(C)C)N1CCN(c2cccc(CN3O[C@@H](CO)[C@@H]([C@H](C)O)[C@H]3C(=O)NC3C[C@H]4C[C@@H]([C@@H]3C)C4(C)C)c2)CC1 (stereo partly drawn) [Compound 296] | ♯ | < 800
8 | CC(C)[C@@H](CN(C)C)NC(=O)c1cccc(-c2cccc(CN3O[C@@H](CO)[C@@H]([C@H](C)O)[C@H]3C(=O)N[C@H]3C[C@H]4C[C@@H]([C@@H]3C)C4(C)C)c2)c1 [Compound 100] | ♯ | < 800
9 | C[C@H](O)[C@@H]1[C@H](CO)ON(Cc2cccc(C#CCNC(=O)c3ccccc3)c2)[C@@H]1C(=O)N[C@H]1C[C@H]2CC([C@@H]1C)C2(C)C [Compound 57] | ♯ | 800 to 6000
10 | CCCCC[C@H](O)C#Cc1ccc(CN2O[C@@H](CO)[C@@H]([C@H](C)O)[C@H]2C(=O)NCCCN(C)c2ccccc2)cc1 [Compound 46] | ♯ | > 50000
11 | C[C@@H]1[C@@H](NC(=O)[C@@H]2C([C@H](C)O)[C@H](CO)ON2Cc2cccc(C#CC(C)(O)c3ccccc3)c2)C[C@H]2C[C@@H]1C2(C)C (stereo partly drawn) [Compound 43] | ♯♯ | 800 to 6000
12 | CC(C)CC(CN(C)C)N(Cc1cccc(CN2OC(CO)C(C(C)O)C2C(=O)NC2CC3CC(C2C)C3(C)C)c1)Cc1cccc(C(C)(C)C)c1O (stereo not drawn) [Compound 338] | ♯ | < 800
13 | CC(C)CCN(CCN(C)C)Cc1cccc(CN2O[C@@H](CO)[C@@H]([C@H](C)O)[C@H]2C(=O)N[C@H]2C[C@H]3C[C@@H]([C@@H]2C)C3(C)C)c1 [Compound 207] | ♯ | < 800
14 | COc1c(CN2O[C@@H](CO)[C@@H]([C@H](C)O)[C@H]2C(=O)N[C@H]2C[C@H]3C[C@@H]([C@@H]2C)C3(C)C)cccc1-c1ccc(C(=O)N(C)C)cc1 [Compound 174] | ♯ | < 800
15 | CCOc1cccc(CN(Cc2cccc(CN3O[C@@H](CO)C([C@H](C)O)[C@H]3C(=O)N[C@H]3C[C@H]4C[C@@H]([C@@H]3C)C4(C)C)c2)[C@@H](CC(C)C)CN(C)C)c1O (stereo partly drawn) [Compound 334] | ♯ | < 800
16 | C[C@@H]1[C@@H](NC(=O)[C@@H]2[C@H]([C@H](C)O)[C@H](CO)ON2Cc2cccc(-c3cccc(C(N)=O)c3)c2)C[C@H]2C[C@@H]1C2(C)C [Compound 219] | ♯ | < 800
17 | C[C@@H]1[C@@H](NC(=O)[C@@H]2[C@H]([C@H](C)O)[C@H](CO)ON2Cc2cccc(-c3cccc([S+](C)[O-])c3)c2)C[C@H]2C[C@@H]1C2(C)C (stereo partly drawn) [Compound 202] | ♯ | < 800
18 | C[C@@H]1[C@@H](NC(=O)[C@@H]2[C@H]([C@H](C)O)[C@H](CO)ON2Cc2cccc(-c3cccc(C(=O)NCCc4c[nH]cn4)c3)c2)C[C@H]2C[C@@H]1C2(C)C [Compound 127] | ♯♯ | < 800
19 | CC(O)C1C(CO)ON(Cc2cccc(CN(CCN(C)C)CC3CC=CCC3)c2)C1C(=O)NC1CC2CC(C1C)C2(C)C (stereo not drawn) [Compound 350] | ♯ | < 800
20 | C[C@@H](O)[C@H]1[C@@H](CO)ON(Cc2cccc(C#CC(O)c3ccccc3Cl)c2)[C@H]1C(=O)NCCCN(C)c1ccccc1 (stereo partly drawn) [Compound 33] | ♯♯ | 800 to 6000
21 | COc1ccc(OC)c(CN(Cc2cccc(CN3OC(CO)C(C(C)O)C3C(=O)NC3CC4CC(C3C)C4(C)C)c2)C(CC(C)C)CN(C)C)c1 (stereo not drawn) [Compound 333] | ♯ | < 800
22 | CCN1CCC[C@@H]1CNC(=O)c1cccc(-c2cccc(CN3O[C@@H](CO)[C@@H]([C@H](C)O)[C@H]3C(=O)N[C@H]3C[C@H]4C[C@@H]([C@@H]3C)C4(C)C)c2)c1 [Compound 106] | ♯ | < 800
23 | C[C@@H](O)[C@@H]1C(C(=O)NCCCn2cnc3ccccc32)N(Cc2cccc(C#CCNC(=O)c3ccccc3)c2)O[C@@H]1CO (stereo partly drawn) [Compound 55] | ♯♯ | > 50000
24 | C[C@@H]1[C@@H](NC(=O)[C@@H]2[C@H]([C@H](C)O)[C@H](CO)ON2Cc2cccc(-c3cccc(C(=O)NCCCO)c3)c2)C[C@H]2C[C@@H]1C2(C)C [Compound 121] | ♯♯ | < 800
25 | CC(C)C[C@H](CN(C)C)NC(=O)c1cccc(-c2cccc(CN3O[C@@H](CO)[C@@H]([C@H](C)O)[C@H]3C(=O)N[C@H]3C[C@H]4C[C@@H]([C@@H]3C)C4(C)C)c2)c1 [Compound 99] | ♯♯ | 800 to 6000
26 | COC(=N)c1ccc(-c2cccc(CN3O[C@@H](CO)[C@@H]([C@H](C)O)[C@H]3C(=O)NC3C[C@@H]4CC([C@@H]3C)C4(C)C)c2)cc1 (stereo partly drawn) [Compound 270] | ♯ | < 800
27 | CNCC#Cc1cccc(CN2O[C@@H](CO)[C@@H]([C@H](C)O)[C@H]2C(=O)N[C@H]2C[C@H]3CC([C@@H]2C)C3(C)C)c1 [Compound 50] | ♯ | 800 to 6000
28 | C[C@H](O)[C@@H]1[C@H](CO)ON(Cc2cccc(C#C[C@]3(O)CC[C@H]4[C@@H]5CCc6cc(O)ccc6[C@H]5CC[C@@]43C)c2)[C@@H]1C(=O)NCCCN(C)c1ccccc1 [Compound 34] | ♯ | > 50000

More lines, now with the values ahead:

Row | Bcl-XL binding affinity Ki [1] | Ki [2] [nM] | Structure (SMILES)
29 | ♯ | 800 to 6000 | C[C@@H]1[C@@H](NC(=O)[C@@H]2[C@H]([C@H](C)O)[C@H](CO)ON2CCCCN(CCc2ccccc2)CCN(C)C)C[C@H]2C[C@@H]1C2(C)C [Compound 546]
30 | ♯ | < 800 | CC(O)C1C(CO)ON(Cc2cccc(CNC(CCc3ccccc3)CN(C)C)c2)C1C(=O)NC1CC2CC(C1C)C2(C)C (stereo not drawn) [Compound 468]
31 | ♯ | < 800 | CC(O)C1C(CO)ON(Cc2cccc(CN3CCC(c4ccccc4)C3CN(C)C)c2)C1C(=O)NC1CC2CC(C1C)C2(C)C (stereo not drawn) [Compound 450]
32 | ♯ | 800 to 6000 | CC(C)C[C@@H](CN(C)C)N(Cc1ccccc1)Cc1cccc(CN2O[C@@H](CO)[C@@H]([C@H](C)O)[C@H]2C(=O)NCc2ccc(-c3ccccc3)cc2)c1 [Compound 536]
33 | ♯ | < 800 | CC(O)C1C(CO)ON(Cc2cccc(C(=O)NCc3ccccc3)c2)C1C(=O)NC1CC2CC(C1C)C2(C)C (stereo not drawn) [Compound 510]
34 | ♯ | 800 to 6000 | C[C@@H]1[C@@H](NC(=O)[C@@H]2[C@H]([C@H](C)O)[C@H](CO)ON2CCCCN(CCN(C)C)CC2CCCCC2)C[C@H]2C[C@@H]1C2(C)C [Compound 553]
35 | ♯ | < 800 | C[C@@H]1[C@@H](NC(=O)[C@@H]2[C@H]([C@H](C)O)[C@H](CO)ON2Cc2cccc(N(CCCN(C)C)CCCN(C)C)c2)C[C@H]2C[C@@H]1C2(C)C [Compound 583]
36 | ♯ | 800 to 6000 | C[C@@H]1[C@@H](NC(=O)[C@@H]2[C@H]([C@H](C)O)[C@H](CO)ON2CCCCN(CCN(C)C)Cc2ccccc2F)C[C@H]2C[C@@H]1C2(C)C [Compound 550]
37 | ♯ | < 800 | C[C@@H]1[C@@H](NC(=O)[C@@H]2C([C@H](C)O)[C@H](CO)ON2Cc2cccc(CN(CCN(C)C)C(c3ccccc3)c3ccccc3)c2)C[C@H]2C[C@@H]1C2(C)C (stereo partly drawn) [Compound 441]
38 | ♯ | 6000 to 50000 | C[C@H](O)[C@@H]1[C@H](CO)ON(Cc2cccc(CN(CCN(C)C)Cc3ccccc3)c2)[C@@H]1C(=O)NCCc1c[nH]c2ccccc12 [Compound 516]
39 | ♯ | 6000 to 50000 | C[C@H](O)[C@@H]1[C@H](CO)ON(Cc2cccc(CN(CCN(C)C)Cc3ccccc3)c2)[C@@H]1C(=O)NCCCN(C)C [Compound 517]
40 | ♯ | 6000 to 50000 | C[C@H](O)[C@@H]1[C@H](CO)ON(Cc2cccc(CN(CCN(C)C)Cc3ccccc3)c2)[C@@H]1C(=O)NC1CCN(C(=O)OC(C)(C)C)CC1 [Compound 528]
41 | ♯ | < 800 | C[C@H](O)[C@@H]1[C@H](CO)ON(Cc2cccc(CN(CCN(C)C)Cc3ccccc3)c2)[C@@H]1C(=O)NCc1ccc(-c2ccccc2)cc1 [Compound 526]
42 | ♯ | < 800 | CC(O)C1C(CO)ON(Cc2cccc(C(=O)NCCc3ccccc3)c2)C1C(=O)NC1CC2CC(C1C)C2(C)C (stereo not drawn) [Compound 503]
